The record followed here is patent publication US20260201008A1, “SECRETIN-DERIVED GLP1R SELECTIVE AGONISTS” (GUBRA A/S, priority 2023, published 2026).

A short description of data set [1]: Solubility of purified peptides. It is filed as physicochemical. Conditions: 100 mM phosphate buffer, target pH 7.0, target approximately 10 mg/mL. On the procedure: Solubility was tested in the following vehicles: 100 mM phosphate buffer facilitating a target pH of 7.0. Samples were directly dissolved in Mini-UniPrep Syringeless Filter 0.45 μm unit (Whatman). For the desired concentration, such as a concentration of approximately 10 mg/mL, 1050 nmol of peptide was dissolved in 400 μL vehicle. Samples were incubated for at least 1 h at room temperature on a rocking table. The pH was measured and adjusted. Samples were left on the rocking table for an additional hour before a second pH measurement and adjustment. Visual inspection was performed and noted before the filter was pushed. The concentration of peptide in the filtrate was determined using CAD (Charged Aerosol Detection), double determination was done for each sample. The measured concentration was reported in μM. Furthermore, the pH of the filtrate was measured and reported. Peptides with a measured concentration within +/−20% of target concentration are considered fully soluble.

The target of data set [2] is GLP1R (Homo sapiens, UniProt P43220). Briefly: hGLP1R potency, cAMP accumulation in CHO-K1 cells stably overexpressing hGLP1R. It is filed as cell-based. On the set-up: host or cells: CHO-K1. The following applies: for Selectivity: SCTR EC50/GLP1R EC50 ratio. In outline: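 In the presence of 0.5 mM IBMX, compounds stimulated the cells for 30 minutes at room temperature. Accumulated cAMP was then detected by TR-FRET, with EC50 values fitted by variable-slope nonlinear regression.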
For orientation: cAMP levels reflect the balance of adenylyl cyclase and phosphodiesterase activity.

Data set [3] can be described thus: Thioflavin T fibril formation assay of purified peptides. It is filed as physicochemical. Conditions: 267 μM, phosphate buffer pH 7.0, 96 h at 40° C. On the procedure: Thioflavin T fibril formation assay: Peptides are dissolved as 267 μM in 50 mM phosphate buffer pH 7.0 for 2 h at room temperature on a rocking table. The samples were then divided into three replicates of 80 μl/well and mixed with 2 μl/well Thioflavin T (ThT) to a final concentration of 4 μM ThT in a black 384 well microplate with a clear bottom (Greiner #781096). The plate is inserted in a CLARIOstar Plus microplate reader (BMG Labtech) and fibril formation is measured as an increase in fluorescence emission at 480 nm (excitation at 450 nm) during 96 h at 40° C. with cycles of 5 min rest and 5 min linear shaking at 700 rpm.

The target of data set [4] is SCTR (Homo sapiens, UniProt P47872). In words: hSCTR potency, cAMP accumulation in CHO-K1 cells stably overexpressing hSCTR. It is filed as cell-based. Set-up: alternatively Euroscreen ES-712-AF; FAST-0161L; host or cells: CHO-K1. In outline:
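In this Gs cAMP assay, stably transfected CHO-K1 hSCTR cells were stimulated at room temperature for 30 min in IBMX-containing buffer. Time-resolved FRET gave the signal. Replicates were increased when the top concentration changed or EC50 values differed 5-fold.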

[5] abbreviates: Table 2, extended 30 amino acid peptides.
Setting [6] is: Table 2, extended 30 amino acid peptides, read-out: PEC50 hGLPR1 (converted).
The mark [7] stands for this setting: Table 2, extended 30 amino acid peptides, read-out: pEC50 hSCTR (converted).

Structures are written as SMILES. Values after ≈ are worked out from the molar mass of the structure shown. Read-outs that look alike come from different tables or passages of the source. Numbered stars: 1 amine (or outer) side, 2 acyl side, 3 side chain; on linkers, the order of the positions; unused ones are H or OH. Square brackets hold non-standard residues; d marks the D form. Side chains are listed from the residue outwards. Peptide text beside a SMILES is read from it. * marks the point of attachment. C20 diacid = O=C(O)CCCCCCCCCCCCCCCCCCC(=O)*; γGlu = O=C(O)[C@H](CCC(=O)[*:2])N[*:1]; AEEA = NCCOCCOCC(=O)O; Aib = CC(C)(N)C(=O)O

GLP1R, sequence (P43220 24-463): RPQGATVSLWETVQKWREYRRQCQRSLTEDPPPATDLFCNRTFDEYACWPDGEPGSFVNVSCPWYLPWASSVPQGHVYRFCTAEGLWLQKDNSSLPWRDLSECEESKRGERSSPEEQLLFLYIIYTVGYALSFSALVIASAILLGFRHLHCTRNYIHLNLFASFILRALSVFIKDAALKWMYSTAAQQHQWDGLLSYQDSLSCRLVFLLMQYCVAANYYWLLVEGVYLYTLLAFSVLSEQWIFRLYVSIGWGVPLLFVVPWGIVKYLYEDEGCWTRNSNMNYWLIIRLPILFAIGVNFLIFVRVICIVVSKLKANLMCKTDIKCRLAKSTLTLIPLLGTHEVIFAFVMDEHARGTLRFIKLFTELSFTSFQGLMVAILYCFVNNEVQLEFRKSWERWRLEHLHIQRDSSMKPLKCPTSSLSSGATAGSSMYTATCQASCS
SCTR, sequence (P47872 23-440): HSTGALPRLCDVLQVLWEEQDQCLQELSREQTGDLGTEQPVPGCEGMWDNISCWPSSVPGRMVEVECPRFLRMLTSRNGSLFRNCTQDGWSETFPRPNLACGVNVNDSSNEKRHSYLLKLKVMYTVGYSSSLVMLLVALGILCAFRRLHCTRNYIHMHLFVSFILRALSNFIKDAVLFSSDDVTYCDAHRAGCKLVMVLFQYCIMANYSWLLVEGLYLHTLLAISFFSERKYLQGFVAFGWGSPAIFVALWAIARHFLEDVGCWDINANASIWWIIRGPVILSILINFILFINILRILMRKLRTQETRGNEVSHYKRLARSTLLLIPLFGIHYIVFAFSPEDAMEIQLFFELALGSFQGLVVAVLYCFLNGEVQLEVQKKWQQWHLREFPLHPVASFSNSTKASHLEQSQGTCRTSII

A word on the solubility: it is the concentration that dissolves in the medium under given conditions. Higher therefore signals a readily soluble substance. In turn, `CC(C)C[C@H](NC(=O)[C@H](Cc1ccccc1)NC(=O)[C@H](CCCNC(=N)N)NC(=O)[C@H](CCC(N)=O)NC(=O)[C@H](CC(C)C)NC(=O)C(C)(C)NC(=O)[C@H](C)NC(=O)[C@H](CCC(=O)O)NC(=O)[C@H](CCC(=O)O)NC(=O)[C@H](CCCCNC(=O)COCCOCCNC(=O)COCCOCCNC(=O)CC[C@H](NC(=O)CCCCCCCCCCCCCCCCCCC(=O)O)C(=O)O)NC(=O)[C@H](CC(C)C)NC(=O)[C@H](Cc1ccc(O)cc1)NC(=O)[C@H](CO)NC(=O)[C@@H](NC(=O)[C@H](CC(=O)O)NC(=O)[C@H](CO)NC(=O)[C@@H](NC(=O)[C@H](Cc1ccccc1)NC(=O)[C@@H](NC(=O)CNC(=O)[C@H](CCC(=O)O)NC(=O)C(C)(C)NC(=O)[C@@H](N)Cc1c[nH]cn1)[C@@H](C)O)[C@@H](C)O)C(C)C)C(=O)N[C@@H](CCC(=O)O)C(=O)N[C@@H](Cc1c[nH]cn1)C(=O)N[C@@H](CC(C)C)C(=O)N[C@H](C(N)=O)C(C)C` [compound 203] (H-H[Aib]EGTFTSDVSYLK([AEEA-AEEA-γGlu-C20 diacid])EEA[Aib]LQRFLEHLV-NH2) showed a solubility in data set [1] of 9800 µg/mL (≈ 2540 µM). For the same molecule, the Selectivity in data set [2] (purified peptides) worked out at 11176. Further, the EC50 was 0.02 nM in data set [2] (cAMP accumulation, CHO-K1 cells stably overexpressing hGLP1R, read-out: hGLP1R potency (pEC50) (converted)); 200 nM in data set [4] (cAMP accumulation, CHO-K1 cells stably overexpressing hSCTR, read-out: hSCTR potency (pEC50) (converted)); 200 nM in data set [4] (purified peptides, read-out: hSCTR pEC50 (converted)). Moreover, the “SCTR EC50/GLP1R EC50 ratio” value in data set [2] (selectivity ratio, hSCTR vs hGLP1R, cAMP accumulation in CHO-K1 cells) stood at 10000. Further, the Fibril formation result in data set [3] is “No”.
In the case of `CC(C)C[C@H](NC(=O)[C@H](Cc1ccccc1)NC(=O)[C@H](CCCNC(=N)N)NC(=O)[C@H](CCC(N)=O)NC(=O)[C@H](CC(C)C)NC(=O)C(C)(C)NC(=O)[C@H](C)NC(=O)[C@H](CCC(=O)O)NC(=O)[C@H](CCC(=O)O)NC(=O)[C@H](CCCCNC(=O)COCCOCCNC(=O)COCCOCCNC(=O)CC[C@H](NC(=O)CCCCCCCCCCCCCCCCCCC(=O)O)C(=O)O)NC(=O)[C@H](CC(C)C)NC(=O)[C@H](CCCNC(=N)N)NC(=O)[C@H](CO)NC(=O)[C@@H](NC(=O)[C@H](CC(=O)O)NC(=O)[C@H](CO)NC(=O)[C@@H](NC(=O)[C@H](Cc1ccccc1)NC(=O)[C@@H](NC(=O)CNC(=O)[C@H](CCC(=O)O)NC(=O)C(C)(C)NC(=O)[C@@H](N)Cc1c[nH]cn1)[C@@H](C)O)[C@@H](C)O)C(C)C)C(=O)N[C@@H](CCC(=O)O)C(=O)N[C@@H](Cc1c[nH]cn1)C(=O)N[C@@H](CC(C)C)C(=O)N[C@H](C(=O)N[C@@H](CCC(=O)O)C(=O)N[C@@H](C)C(=O)N[C@@H](C)C(N)=O)C(C)C` [compound 208] (H-H[Aib]EGTFTSDVSRLK([AEEA-AEEA-γGlu-C20 diacid])EEA[Aib]LQRFLEHLVEAA-NH2), in data set [1], the solubility is 9200 µg/mL (≈ 2230 µM). In addition, in data set [3], the Fibril formation entry was “No”.
In turn, `CC(C)C[C@H](NC(=O)[C@H](Cc1ccccc1)NC(=O)[C@H](CCCNC(=N)N)NC(=O)[C@H](CCC(N)=O)NC(=O)[C@H](CC(C)C)NC(=O)C(C)(C)NC(=O)[C@H](C)NC(=O)[C@H](CCC(=O)O)NC(=O)[C@H](CCC(=O)O)NC(=O)[C@H](CCCCNC(=O)COCCOCCNC(=O)COCCOCCNC(=O)CC[C@H](NC(=O)CCCCCCCCCCCCCCCCCCC(=O)O)C(=O)O)NC(=O)[C@H](CC(C)C)NC(=O)[C@H](Cc1ccc(O)cc1)NC(=O)[C@H](CO)NC(=O)[C@@H](NC(=O)[C@H](CC(=O)O)NC(=O)[C@H](CO)NC(=O)[C@@H](NC(=O)[C@H](Cc1ccccc1)NC(=O)[C@@H](NC(=O)CNC(=O)[C@H](CCC(=O)O)NC(=O)C(C)(C)NC(=O)[C@@H](N)Cc1c[nH]cn1)[C@@H](C)O)[C@@H](C)O)C(C)C)C(=O)N[C@@H](CCC(=O)O)C(=O)N[C@@H](Cc1c[nH]cn1)C(=O)N[C@@H](CC(C)C)C(=O)N[C@H](C(=O)N[C@@H](CCC(=O)O)C(=O)N[C@@H](C)C(=O)N[C@@H](C)C(N)=O)C(C)C` [compound 209] (H-H[Aib]EGTFTSDVSYLK([AEEA-AEEA-γGlu-C20 diacid])EEA[Aib]LQRFLEHLVEAA-NH2) yielded a solubility in data set [1] of 11000 µg/mL (≈ 2660 µM). Moreover, the Selectivity in data set [2] (setting [5]) worked out at 34167; in data set [2] (purified peptides), 33673. Moreover, the figures for the EC50 in data set [2] (setting [6]) and in data set [4] (setting [7]) were 0.0126 nM and 398 nM, respectively. Further, in data set [3], the Fibril formation entry is recorded as “No”.
With `CC(C)C[C@H](NC(=O)[C@H](Cc1ccccc1)NC(=O)[C@H](CCCNC(=N)N)NC(=O)[C@H](CCC(N)=O)NC(=O)[C@H](CC(C)C)NC(=O)C(C)(C)NC(=O)[C@H](C)NC(=O)[C@H](CCC(=O)O)NC(=O)[C@H](CCC(=O)O)NC(=O)[C@H](CCCCNC(=O)COCCOCCNC(=O)COCCOCCNC(=O)CC[C@H](NC(=O)CCCCCCCCCCCCCCCCCCC(=O)O)C(=O)O)NC(=O)[C@H](CC(C)C)NC(=O)[C@H](CCC(=O)O)NC(=O)[C@H](CO)NC(=O)[C@@H](NC(=O)[C@H](CC(=O)O)NC(=O)[C@H](CO)NC(=O)[C@@H](NC(=O)[C@H](Cc1ccccc1)NC(=O)[C@@H](NC(=O)CNC(=O)[C@H](CCC(=O)O)NC(=O)C(C)(C)NC(=O)[C@@H](N)Cc1c[nH]cn1)[C@@H](C)O)[C@@H](C)O)C(C)C)C(=O)N[C@@H](CCC(=O)O)C(=O)N[C@@H](Cc1c[nH]cn1)C(=O)N[C@@H](CC(C)C)C(=O)N[C@H](C(=O)N[C@@H](CCC(=O)O)C(=O)N[C@@H](C)C(=O)N[C@@H](C)C(N)=O)C(C)C` [compound 210] (H-H[Aib]EGTFTSDVSELK([AEEA-AEEA-γGlu-C20 diacid])EEA[Aib]LQRFLEHLVEAA-NH2), the solubility in data set [1] was 8300 µg/mL (≈ 2020 µM). Also, the Fibril formation entry in data set [3] is “No”.
`CC(C)C[C@H](NC(=O)[C@H](CC(C)C)NC(=O)[C@H](CCCNC(=N)N)NC(=O)[C@H](CO)NC(=O)[C@@H](NC(=O)[C@H](CC(=O)O)NC(=O)[C@H](CO)NC(=O)[C@@H](NC(=O)[C@H](Cc1ccccc1)NC(=O)[C@@H](NC(=O)CNC(=O)[C@H](CCC(=O)O)NC(=O)C(C)(C)NC(=O)[C@@H](N)Cc1c[nH]cn1)[C@@H](C)O)[C@@H](C)O)C(C)C)C(=O)N[C@@H](CCC(=O)O)C(=O)N[C@@H](CCC(=O)O)C(=O)N[C@@H](C)C(=O)NC(C)(C)C(=O)N[C@@H](CC(C)C)C(=O)N[C@@H](CCC(N)=O)C(=O)N[C@@H](CCCNC(=N)N)C(=O)N[C@@H](Cc1ccccc1)C(=O)N[C@@H](CC(C)C)C(=O)N[C@@H](CCC(=O)O)C(=O)N[C@@H](CCCCNC(=O)COCCOCCNC(=O)COCCOCCNC(=O)CC[C@H](NC(=O)CCCCCCCCCCCCCCCCCCC(=O)O)C(=O)O)C(=O)N[C@@H](CC(C)C)C(=O)N[C@H](C(=O)N[C@@H](CCC(=O)O)C(=O)N[C@@H](C)C(=O)N[C@@H](C)C(N)=O)C(C)C` [compound 212] (H-H[Aib]EGTFTSDVSRLLEEA[Aib]LQRFLEK([AEEA-AEEA-γGlu-C20 diacid])LVEAA-NH2) displayed a solubility in data set [1] of 8400 µg/mL (≈ 2050 µM). For the same molecule, the Selectivity was 2864 in data set [2] (setting [5]) and 2857 in data set [2] (purified peptides). In addition, the EC50 in data set [2] (setting [6]) was 0.02 nM; in data set [4] (setting [7]), 63.1 nM. In addition, in data set [3], the Fibril formation entry is recorded as “No”.
